Values of other authors in patent publication US7169819B2, “Pharmaceutical compositions of fenretinide having increased bioavailability and methods of using the same” (Childrens Hospital Los Angeles, priority 2000, dated 2007).

Tests used:
[1] = background statement
[2] = rodents

Solubility in aqueous solution [1]: minimally soluble | half-life [2]: 12 to 16 h
Structure (SMILES): CC1=C(/C=C/C(C)=C/C=C/C(C)=C/C(=O)Nc2ccc(O)cc2)C(C)(C)CCC1 [Fenretinide, all-trans-N-(4-hydroxyphenyl)retinamide]
